Data as given in US8338451B2, “Polysubstituted derivatives of 2-heteroaryl-6-phenylimidazo[1,2-a]pyridines, and preparation and therapeutic use thereof” (Sanofi, priority 2008, dated 2012).

The compounds below were run against T1, mouse Nurr1 receptor (Mus musculus, UniProt Q06219) (assay: In vitro activity on N2A cells: NBRE-luciferase reporter (NOT/Nurr1 modulation)). Conditions: N2A (Neuro-2A) cells stably transfected with 8NBRE-luciferase, 24 hours incubation.
T1 construct: a cell line (N2A) endogenously expressing the mouse Nurr1 receptor; host or cells: Neuro-2A (N2A) mouse neuroblastoma cells stably transfected with 8NBRE-luciferase
T1 sequence (Q06219 whole entry): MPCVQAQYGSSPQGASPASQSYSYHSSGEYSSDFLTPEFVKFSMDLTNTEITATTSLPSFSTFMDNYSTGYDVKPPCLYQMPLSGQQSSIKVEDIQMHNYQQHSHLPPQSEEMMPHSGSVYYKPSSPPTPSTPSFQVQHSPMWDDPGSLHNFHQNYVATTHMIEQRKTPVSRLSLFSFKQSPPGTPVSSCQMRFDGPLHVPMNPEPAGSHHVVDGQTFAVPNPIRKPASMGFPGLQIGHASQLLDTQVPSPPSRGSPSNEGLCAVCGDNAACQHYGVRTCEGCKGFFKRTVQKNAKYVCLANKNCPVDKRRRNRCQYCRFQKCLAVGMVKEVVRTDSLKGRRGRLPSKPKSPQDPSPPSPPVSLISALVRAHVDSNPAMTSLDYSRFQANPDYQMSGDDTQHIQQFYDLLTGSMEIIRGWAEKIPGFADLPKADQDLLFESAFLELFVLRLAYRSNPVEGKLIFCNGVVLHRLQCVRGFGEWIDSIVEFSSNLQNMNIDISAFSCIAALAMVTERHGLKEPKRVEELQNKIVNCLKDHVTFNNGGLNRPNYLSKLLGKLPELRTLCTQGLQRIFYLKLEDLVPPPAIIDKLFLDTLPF
Assay type: cell-based
Experimental: Evaluation of the In Vitro Activity on N2A Cells The activity of the compounds according to the invention was evaluated on a cell line (N2A) endogenously expressing the mouse Nurr1 receptor and stably transfected with the NOT binding response element (NBRE) coupled to the luciferase reporter gene. The EC50 values are between 0.01 and 10 μM. The tests were carried out according to the procedure described below. The Neuro-2A cell line comes from a standard commercial source (ATCC). The Neuro-2A clone was obtained from a spontaneous tumour originating from a mouse A albino strain, by R. J Klebe et el. This Neuro-2A line is then stably transfected with 8NBRE-luciferase. The N2A-8NBRE cells are cultured to confluence in 75 cm^2 culture flasks containing DMEM supplemented with 10% of foetal calf serum, 4.5 g/l of glucose and 0.4 mg/ml of geneticin. After one week of culture, the cells are recovered with 0.25% trypsin for 30 seconds, and then resuspended in DMEM without phenol red, containing 4.5 g/l of glucose and 10% of Hyclone defatted serum, and deposited in white, transparent-bottom 96-well plates. The cells are deposited at a rate of 60 000 per well in 75 μl for 24 hours before the addition of the products. […] On the day of the measurement, an equivalent volume (100 μl) of Steadylite is added to each well, followed by a waiting period of 30 minutes in order to obtain complete lysis of the cells and maximum production of the signal. The plates are then measured in a microplate luminescence counter after having been sealed with an adhesive film. […] Each product concentration is diluted beforehand in culture medium before incubation with the cells thus containing a final concentration of 0.625% of DMSO.

Row | SMILES | EC50
1 | OCc1cccc(-c2ccc3nc(-c4cccnc4)cn3c2)c1 [Compound 7] | 1.6 nM
2 | OCc1ccc(-c2ccc3nc(-c4coc5ccccc45)cn3c2)cc1 [Compound 24, [4-[2-(benzofuran-3-yl)imidazo[1,2-a]pyridin-6-yl]phenyl]methanol] | 50 nM
3 | CC(C)(O)c1cccc(-c2ccc3nc(-c4ccccn4)cn3c2)c1 [Compound 50, 2-[3-(2-pyridin-2-ylimidazo[1,2-a]pyridin-6-yl)phenyl]propan-2-ol] | 202 nM
4 | Cc1cc(-c2cn3cc(-c4cccc(C(C)(C)O)c4)ccc3n2)no1 [Compound 86, 2-{3-[2-(5-methylisoxazol-3-yl)imidazo[1,2-a]pyridin-6-yl]phenyl}propan-2-ol] | 71 nM

Further lines, results first:

Row | EC50 | SMILES
5 | 0.9 nM | OCc1cccc(-c2ccc3nc(-c4ccc5c(c4)OCO5)cn3c2)c1 [Compound 6, {3-[2-(1,3-benzodioxol-5-yl)imidazo[1,2-a]pyridin-6-yl]phenyl}methanol]
6 | 20 nM | OCc1c(F)cccc1-c1ccc2nc(-c3cccs3)cn2c1 [Compound 68, [2-fluoro-6-(2-thien-2-ylimidazo[1,2-a]pyridin-6-yl)phenyl]methanol]
7 | 5 nM | OCc1c(F)ccc(-c2ccc3nc(-c4cc5ccccc5o4)cn3c2)c1F [Compound 79, [3-(2-benzofuran-2-ylimidazo[1,2-a]pyridin-6-yl)-2,6-difluorophenyl]methanol]
